Patent publication USRE39591E1, “6-O-substituted ketolides having antibacterial activity” (Abbott Laboratories, priority 1996, dated 2007)
Values after ≈ are worked out from the molar mass of the structure shown.

System: up to 32 different microorganisms
Assay: in vitro antibacterial activity (MIC), agar dilution on Brain Heart Infusion (BHI) agar with Steers replicator
Type: cell-based
Conditions: unit assumed
Method in brief: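 Up to 32 strains were replicator-inoculated (1:100, or 1:10 for Micrococcus and Streptococcus) onto BHI agar plates holding serial compound dilutions and kept 20-24 h at 35-37° C. Plates were read visually against drug-free growth controls, with erythromycin A run alongside; MIC was the lowest concentration giving no growth, slight haze or sparse colonies.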

SMILES | MIC (organism code AA) [µg/mL] | MIC (organism code BB) [µg/mL] | MIC (organism code CC) [µg/mL] | MIC (organism code DD) [µg/mL] | MIC (organism code EE) [µg/mL] | MIC (organism code FF) [µg/mL] | MIC (organism code GG) [µg/mL] | MIC (organism code HH) [µg/mL] | MIC (organism code II) [µg/mL] | MIC (organism code JJ) [µg/mL] | MIC (organism code KK) [µg/mL] | MIC (organism code LL) [µg/mL] | MIC (organism code MM) [µg/mL] | MIC (organism code NN) [µg/mL] | MIC (organism code OO) [µg/mL] | MIC (organism code PP) [µg/mL] | MIC (organism code QQ) [µg/mL] | MIC (organism code RR) [µg/mL] | MIC (organism code SS) [µg/mL] | MIC (organism code TT) [µg/mL] | also measured
CC[C@H]1OC(=O)[C@H](C)C(=O)[C@H](C)[C@@H](O[C@@H]2O[C@H](C)C[C@H](N(C)C)[C@H]2O)[C@@](C)(OCC#Cc2ccc3ncccc3c2)C[C@@H](C)C(=O)[C@H](C)[C@H]2NC(=O)O[C@@]21C [Example 254, Compound of Formula (IX): L is CO, T is NH, R is —CH2—C≡C-(6-quinolyl)] | 0.1 | 0.1 | > 100 | 0.1 | 0.1 | 0.1 | > 100 | 0.1 | 0.02 | ≤ 0.005 | 0.01 | 0.01 | 0.78 | 0.1 | 0.02 | 0.1 | 25 | 0.2 | 100 | > 100 | MIC (organism code UU): 0.78 µg/mL; MIC (organism code VV): 0.01 µg/mL; MIC (organism code WW): 2 µg/mL; MIC (organism code XX): ≤ 0.004 µg/mL; MIC (organism code YY): ≤ 0.004 µg/mL; MIC (organism code ZZ): 2 µg/mL; MIC (organism code ZZA): 0.25 µg/mL
CC[C@H]1OC(=O)[C@H](C)C(=O)[C@H](C)[C@@H](O[C@@H]2O[C@H](C)C[C@H](N(C)C)[C@H]2O)[C@@](C)(OCC#Cc2ccc3nc(C)ccc3c2)C[C@@H](C)C(=O)[C@H](C)[C@H]2NC(=O)O[C@@]21C [Example 255, Compound of Formula (IX): L is CO, T is NH, R is —CH2—C≡C-(2-methyl-6-quinolyl)] | 0.1 | 0.2 | > 100 | 0.2 | 0.2 | 0.2 | > 100 | 0.1 | 0.05 | 0.02 | 0.02 | 0.02 | 50 | 0.2 | 0.05 | 0.2 | 100 | 0.3 | > 100 | > 100 | MIC (organism code UU): 3.1 µg/mL; MIC (organism code VV): 0.05 µg/mL; MIC (organism code XX): 0.03 µg/mL; MIC (organism code YY): 0.03 µg/mL; MIC (organism code ZZ): 16 µg/mL; MIC (organism code ZZA): 0.25 µg/mL
CC[C@H]1OC(=O)[C@H](C)C(=O)[C@H](C)[C@@H](O[C@@H]2O[C@H](C)C[C@H](N(C)C)[C@H]2O)[C@@](C)(OCC#Cc2ccc(C(=O)Nc3ccccn3)o2)C[C@@H](C)C(=O)[C@H](C)[C@H]2NC(=O)O[C@@]21C [Example 256] | 0.05 (≈ 0.0608 µM) | 0.05 (≈ 0.0608 µM) | > 100 | 0.05 (≈ 0.0608 µM) | 0.05 (≈ 0.0608 µM) | 0.02 (≈ 0.0243 µM) | > 100 | 0.1 (≈ 0.122 µM) | 0.02 (≈ 0.0243 µM) | 0.01 (≈ 0.0122 µM) | 0.02 (≈ 0.0243 µM) | 0.01 (≈ 0.0122 µM) | 25 (≈ 30.4 µM) | 0.2 (≈ 0.243 µM) | 0.01 (≈ 0.0122 µM) | 0.1 (≈ 0.122 µM) | 100 (≈ 122 µM) | 0.2 (≈ 0.243 µM) | > 100 | > 100 | MIC (organism code UU): 1.56 µg/mL (≈ 1.9 µM); MIC (organism code VV): 0.05 µg/mL (≈ 0.0608 µM); MIC (organism code WW): 2 µg/mL (≈ 2.43 µM); MIC (organism code XX): 0.03 µg/mL (≈ 0.0365 µM); MIC (organism code YY): 0.03 µg/mL (≈ 0.0365 µM); MIC (organism code ZZ): 16 µg/mL (≈ 19.4 µM); MIC (organism code ZZA): 0.25 µg/mL (≈ 0.304 µM)
C=C(C#CCO[C@@]1(C)C[C@@H](C)C(=O)[C@H](C)[C@H]2NC(=O)O[C@]2(C)[C@@H](CC)OC(=O)[C@H](C)C(=O)[C@H](C)[C@H]1O[C@@H]1O[C@H](C)C[C@H](N(C)C)[C@H]1O)c1ccccc1 [Example 257, Compound of Formula (IX): L is CO, T is NH, R is —CH2—C≡C-(1-phenylethenyl)] | 0.2 | 0.2 | > 100 | 0.2 | 0.2 | 0.2 | > 100 | 0.2 | 0.1 | 0.01 | 0.05 | 0.01 | 100 | 0.2 | 0.05 | 0.2 | > 100 | 0.78 | > 100 | > 100 | MIC (organism code UU): 0.39 µg/mL; MIC (organism code VV): 0.2 µg/mL; MIC (organism code WW): 8 µg/mL; MIC (organism code XX): 0.125 µg/mL; MIC (organism code YY): 0.125 µg/mL; MIC (organism code ZZ): 128 µg/mL; MIC (organism code ZZA): 0.5 µg/mL
CC[C@H]1OC(=O)[C@H](C)C(=O)[C@H](C)[C@@H](O[C@@H]2O[C@H](C)C[C@H](N(C)C)[C@H]2O)[C@@](C)(OCC#CBr)C[C@@H](C)C(=O)[C@H](C)[C@H]2NC(=O)O[C@@]21C [Example 258, Compound of Formula (IX): L is CO, T is NH, R is —CH2—C≡C—Br] | 0.78 | 0.39 | > 100 | 0.78 | 0.39 | 0.78 | > 100 | 0.78 | 0.39 | 0.05 | 0.1 | 0.05 | > 100 | 0.2 | 0.1 | 0.39 | > 100 | 0.78 | > 100 | > 100 | MIC (organism code UU): 12.5 µg/mL; MIC (organism code VV): 0.39 µg/mL; MIC (organism code WW): 32 µg/mL; MIC (organism code XX): 0.03 µg/mL; MIC (organism code YY): 0.03 µg/mL; MIC (organism code ZZ): > 128 µg/mL; MIC (organism code ZZA): 0.125 µg/mL
CC[C@H]1OC(=O)[C@H](C)C(=O)[C@H](C)[C@@H](O[C@@H]2O[C@H](C)C[C@H](N(C)C)[C@H]2O)[C@@](C)(OCC2COC(C)(C)O2)C[C@@H](C)C(=O)[C@H](C)[C@H]2NC(=O)O[C@@]21C (some centres unmarked) [Example 259, Compound of Formula (IX): L is CO, T is NH, R is —CH2-(2,2-dimethyl-1,3-dioxolan-4-yl)] | 6.2 | 6.2 | > 100 | 12.5 | 6.2 | 6.2 | > 100 | 6.2 | 0.78 | 0.39 | 0.78 | 0.39 | > 100 | 1.56 | 0.78 | 1.56 | > 100 | 1.56 | > 100 | > 100 | MIC (organism code UU): 12.5 µg/mL; MIC (organism code VV): 3.1 µg/mL; MIC (organism code WW): 128 µg/mL; MIC (organism code XX): 1 µg/mL; MIC (organism code YY): 1 µg/mL; MIC (organism code ZZ): > 128 µg/mL; MIC (organism code ZZA): 4 µg/mL
C=CCO[C@@]1(C)C[C@@H](C)C(=O)[C@H](C)[C@H]2N(N)C(=O)O[C@]2(C)[C@@H](CC)OC(=O)[C@H](C)C(=O)[C@H](C)[C@H]1O[C@@H]1O[C@H](C)C[C@H](N(C)C)[C@H]1O [Example 262, Compound of Formula (IX): L is CO, T is N(NH2), R is —CH CH═CH2] | 0.78 | 0.78 | > 100 | 0.78 | 0.78 | 0.78 | > 100 | 0.78 | 0.39 | ≤ 0.005 | 0.05 | 0.1 | > 100 | 0.78 | 0.1 | 0.39 | > 100 | 1.56 | > 100 | > 100 | MIC (organism code UU): 6.2 µg/mL; MIC (organism code VV): 0.39 µg/mL; MIC (organism code WW): 16 µg/mL; MIC (organism code XX): 0.03 µg/mL; MIC (organism code YY): 0.03 µg/mL; MIC (organism code ZZ): > 128 µg/mL; MIC (organism code ZZA): 0.5 µg/mL
CC[C@H]1OC(=O)[C@H](C)C(=O)[C@H](C)[C@@H](O[C@@H]2O[C@H](C)C[C@H](N(C)C)[C@H]2O)[C@@](C)(OCC=Cc2cnc3ccccc3c2)C[C@@H](C)C(=O)[C@H](C)[C@H]2N(N)C(=O)O[C@]12C [Example 263, Compound of Formula (IX): L is CO, T is N(NH2), R is —CH2CH═CH-(3-quinolyl)] | 0.1 | 0.1 | > 100 | 0.1 | 0.1 | 0.05 | > 100 | 0.1 | 0.01 | 0.01 | 0.02 | 0.02 | 50 | 0.2 | 0.02 | 0.2 | > 100 | 0.78 | > 100 | > 100 | MIC (organism code UU): 0.78 µg/mL; MIC (organism code VV): 0.2 µg/mL; MIC (organism code WW): 4 µg/mL; MIC (organism code XX): 0.015 µg/mL; MIC (organism code YY): 0.015 µg/mL; MIC (organism code ZZ): > 128 µg/mL; MIC (organism code ZZA): 0.25 µg/mL
CCC1OC(=O)C(C)C(=O)C(C)C(OC2OC(C)CC(N(C)C)C2O)C(C)(OCC=Cc2ccc3ncc(-c4ccccc4)cc3c2)CC(C)C(=O)C(C)C2NC(=O)OC12C (centres unmarked) [Example 273, Compound of Formula (IX): L is CO, T is NH2, R is —CH2CH═CH-(3-phenyl-6-quinolyl)] | 0.2 | 0.2 | > 100 | 0.2 | 0.2 | 0.2 | > 100 | 0.2 | 0.1 | 0.02 | 0.02 | 0.05 | 12.5 | 0.39 | 0.05 | 0.39 | > 100 | 0.78 | > 100 | > 100 | MIC (organism code UU): 0.78 µg/mL; MIC (organism code VV): 0.39 µg/mL; MIC (organism code WW): 8 µg/mL; MIC (organism code XX): 0.03 µg/mL; MIC (organism code YY): 0.03 µg/mL; MIC (organism code ZZ): 16 µg/mL; MIC (organism code ZZA): 0.5 µg/mL
